Assay [1] has as its target Monoamine transporters; serotonin & dopamine (Rattus norvegicus) (UniProt P31652+P23977). Nature of the assay: Relative affinity for dopamine and serotonin transporters. Format: protein assay.
Assay [2] has as its target Sodium-dependent dopamine transporter (Rattus norvegicus, UniProt P23977). Nature of the assay: Displacement of [3H]WIN-35428 from dopamine transporter (DAT). A general note: Loss of bound radioactivity is the signal in a displacement assay; it reports binding, not function.
Assay [3] concerns the target Sodium-dependent serotonin transporter (Rattus norvegicus, UniProt P31652). Nature of the assay: Displacement of [3H]paroxetine from serotonin transporter (SERT).
Assay [4] has as its target Sodium-dependent dopamine transporter (Rattus norvegicus) (UniProt P23977). As to the kind of experiment: Inhibition of binding affinity for dopamine transporter (DAT) by competition against bound [3H]WIN-35428 tested in vitro at a dose of 100 uM.

The structures appear in SMILES notation.

The source of these data is ChEMBL document CHEMBL1131888, “Synthesis, dopamine and serotonin transporter binding affinities of novel analogues of meperidine” (Bioorg Med Chem Lett, 1999).

Monoamine transporters; serotonin & dopamine (Rattus norvegicus), sequence (P23977 whole entry, looked up): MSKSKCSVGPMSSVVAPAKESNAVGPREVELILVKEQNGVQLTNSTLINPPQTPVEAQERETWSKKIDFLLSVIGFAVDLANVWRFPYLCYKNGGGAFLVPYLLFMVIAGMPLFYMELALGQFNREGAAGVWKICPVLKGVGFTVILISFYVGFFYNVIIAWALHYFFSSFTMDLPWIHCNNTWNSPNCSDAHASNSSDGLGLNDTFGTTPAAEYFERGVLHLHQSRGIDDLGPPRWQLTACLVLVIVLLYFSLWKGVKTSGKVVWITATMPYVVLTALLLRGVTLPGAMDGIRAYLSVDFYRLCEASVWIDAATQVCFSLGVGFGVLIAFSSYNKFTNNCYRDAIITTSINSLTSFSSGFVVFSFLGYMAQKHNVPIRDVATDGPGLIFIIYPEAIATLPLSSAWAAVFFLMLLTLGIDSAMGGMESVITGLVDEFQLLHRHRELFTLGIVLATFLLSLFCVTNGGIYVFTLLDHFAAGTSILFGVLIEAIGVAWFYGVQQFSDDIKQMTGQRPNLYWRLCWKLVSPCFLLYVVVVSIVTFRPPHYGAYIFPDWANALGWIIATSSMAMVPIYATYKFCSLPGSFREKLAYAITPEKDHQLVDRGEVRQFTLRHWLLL
Monoamine transporters; serotonin & dopamine (Rattus norvegicus), sequence (P31652 whole entry, looked up): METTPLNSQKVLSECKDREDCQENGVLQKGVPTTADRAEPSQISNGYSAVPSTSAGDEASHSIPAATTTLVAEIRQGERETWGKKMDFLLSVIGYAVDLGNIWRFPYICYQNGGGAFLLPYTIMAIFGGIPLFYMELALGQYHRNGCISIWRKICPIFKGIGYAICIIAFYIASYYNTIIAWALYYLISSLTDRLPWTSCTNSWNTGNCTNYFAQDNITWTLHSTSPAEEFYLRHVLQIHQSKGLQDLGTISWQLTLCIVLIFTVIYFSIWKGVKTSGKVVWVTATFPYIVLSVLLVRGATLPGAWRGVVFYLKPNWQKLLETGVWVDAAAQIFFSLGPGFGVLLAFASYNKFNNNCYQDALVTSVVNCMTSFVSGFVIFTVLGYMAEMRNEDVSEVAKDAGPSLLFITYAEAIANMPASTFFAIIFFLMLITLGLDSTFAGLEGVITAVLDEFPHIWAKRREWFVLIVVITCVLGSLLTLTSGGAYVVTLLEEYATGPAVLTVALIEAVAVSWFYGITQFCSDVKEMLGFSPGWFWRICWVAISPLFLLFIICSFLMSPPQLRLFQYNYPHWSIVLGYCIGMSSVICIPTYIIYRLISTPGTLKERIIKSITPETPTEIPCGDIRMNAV
Sodium-dependent dopamine transporter, sequence (P23977 whole entry): as the sequence (P23977 whole entry, looked up) above
Sodium-dependent dopamine transporter (Rattus norvegicus), sequence (P23977 whole entry): as the sequence (P23977 whole entry, looked up) above
Sodium-dependent serotonin transporter, sequence (P31652 whole entry): as the sequence (P31652 whole entry, looked up) above

By Ki is commonly meant the dissociation constant of the complex between target and ligand, obtained from inhibition or displacement. Lower therefore signals higher affinity. Molecule `CCOC(=O)C1(c2ccc(Cl)c(Cl)c2)CCN(C)CC1` showed a Selectivity in assay [1] of 6.68. Moreover, the Ki in assay [2] turned out to be 0.125 µM; in assay [3], 0.019 µM.
The like results for `CN1CCC(C#N)(c2ccc3ccccc3c2)CC1` were, in that order, 18.9, 2.36 µM and 0.125 µM.
What is called inhibition is how much of the control response was suppressed. Lower therefore signals little suppression. Molecule `CCOC(=O)C1(c2ccc(C)cc2)CCN(C)CC1` showed an inhibition in assay [4] of 68%. In addition, the Selectivity in assay [1] amounted to 7.69. The Ki in assay [2] was 12.4 µM; in assay [3], 1.61 µM.
In turn, `CCOC(=O)C1(c2ccc(I)cc2)CCN(C)CC1` yielded a Selectivity in assay [1] of 155. Also, the Ki was determined as 3.25 µM in assay [2] and 0.021 µM in assay [3].
The like results for `CCOC(=O)C1(c2ccc(F)cc2)CCN(C)CC1` were, in that order, 34.7, 10.7 µM and 0.308 µM.
The molecule `Cc1ccc(C2(C#N)CCN(C)CC2)cc1` displayed an inhibition in assay [4] of 68%. The same molecule yielded a Selectivity in assay [1] of 3.06. For the same molecule, the Ki in assay [2] was 41.8 µM; in assay [3] it was 13.7 µM.
`CN1CCC(C#N)(c2ccc(Cl)c(Cl)c2)CC1` returned a Selectivity in assay [1] of 3.32. The Ki stood at 2.67 µM in assay [2] and 0.805 µM in assay [3].
As for `CN1CCC(C#N)(c2ccc(F)cc2)CC1`, the inhibition in assay [4] stood at 45%. The affinity in assay [3] corresponds to a Ki of 10.1 µM.
For `CN1CCC(C#N)(c2cccc3ccccc23)CC1`, the Selectivity in assay [1] amounted to 16.7. Also, the Ki in assay [2] was 16 µM; in assay [3], 1.02 µM.
`CN1CCC(C#N)(c2ccc(Cl)cc2)CC1`: the inhibition in assay [4] came to 79%. For the same molecule, the Selectivity in assay [1] amounted to 4.31. Moreover, the Ki stood at 22 µM in assay [2] and 5.11 µM in assay [3].
In assay [1], `CN1CCC(C#N)(c2ccc(I)cc2)CC1` returned a Selectivity of 19.4. Also, the Ki in assay [3] was determined as 0.43 µM.
In assay [4], `CCOC(=O)C1(c2ccc(Cl)cc2)CCN(C)CC1` gave an inhibition of 79%. The molecule also gave a Selectivity in assay [1] of 14.8. For the same molecule, the values for the Ki in assay [2] and in assay [3] were 4.1 µM and 0.277 µM, respectively.
`CCOC(=O)C1(c2ccc3ccccc3c2)CCN(C)CC1`: the Selectivity in assay [1] is 158. Also, the Ki in assay [2] came out at 1.14 µM; in assay [3], 0.0072 µM.
